Measurements from patent US20150018301A1, “LRRK-2-Mediated Neuronal Toxicity” (THE JOHNS HOPKINS UNIVERSITY, priority 2009, published 2015).

Tests used:
LRRK2 WT [1] = molecular target: T1, LRRK2 WT (Homo sapiens, UniProt Q5S007); assay: In vitro kinase assay: LRRK2 autophosphorylation; assay type: biochemical; details: dose-response
LRRK2 WT [2] = molecular target: T1, LRRK2 WT; assay: In vitro kinase assay: LRRK2-mediated MBP phosphorylation; assay type: biochemical; details: dose-response
LRRK2 G2019S [3] = molecular target: T2, LRRK2 G2019S (Homo sapiens, UniProt Q5S007, G2019S); assay: In vitro kinase assay: G2019S LRRK2 autophosphorylation; assay type: biochemical; details: dose-response
Method: (§1) Transfection was performed by using Fugene HD reagent (Roche Applied Science) according to the manufacturer's instruction. For purification of recombinant LRRK1 and LRRK2 proteins, ACTA Purifier (GE Healthcare) FPLC system was used.
(§2) Resulting lysates were rotated at 4° C. for 30 min followed by centrifugation at 20,000×g for 15 min. The supernatants were injected into a GSTrap FF column pre-equilibrated with PBS at 0.5. mL/min flow after filtration using a 0.2 μm syringe filter (Corning). The bound proteins were eluted with buffer containing 10 mM GSH (Sigma), 150 mM NaCl, and 50 mM Tris-HCl (pH 8.0).
(§3) The in vitro kinase assay was performed as previously described. […] Recombinant LRRK2 and MBP or CST-4E-BP1 were combined before the kinase reaction. LRRK2 autophosphorylation is LRRK2 itself phosphorylation and MBP or GST-4E-BP1 phosphorylation is induced by LRRK2. After the kinase reaction, combined LRRK2 and MBP or GST-4E-BP1 were loaded on SDSPAGE and phosphorylated LRRK2 and MBP or GST-4E-BP1 could be detected separately an a single gel. Recombinant proteins and inhibitors were incubated at 30° C. in kinase assay buffer containing 20 mM Hepes (pH 7.4), 5 mM EGTA, and 20 mM β-glycerol phosphate. 0.5 μg MBP (Upstate) or 0.5 μg GST-4B-BP1, 50 μM ATP (Sigma), 20 mM MgCl2, and 1 μCi [γ-32P] ATP (PerkinElmer) was added after 5 min. The reaction was performed at 30° C. to reduce non-specific 32P incorporation for 15 min and terminated by the addition of 5×Laemmili sample buffer. […] Gels were stained by coomassie brilliant blue after fixation with 10% acetic acid and 40% methanol and then exposed to a Phosphoimager. Data were analyzed by ImageQuant 6.0 software.
(§4) To calculate the IC50 value, a dose-response curve was constructed and non-linear regression analysis using the equation for a sigmoid plot.

LRRK2 G2019S [4] = molecular target: T2, LRRK2 G2019S; assay: In vitro kinase assay: G2019S LRRK2-mediated MBP phosphorylation; assay type: biochemical; details: dose-response
Method: as §1, §2, §3, §4

LRRK1 WT [5] = molecular target: T3, LRRK1 WT (Homo sapiens, UniProt Q38SD2); assay: In vitro kinase assay: LRRK1 autophosphorylation; assay type: biochemical
LRRK1 WT [6] = molecular target: T3, LRRK1 WT; assay: In vitro kinase assay: LRRK1-mediated MBP phosphorylation; assay type: biochemical
G2019S LRRK2 = G2019S LRRK2 (Homo sapiens, UniProt Q5S007, G2019S); assay: In vitro kinase assay: LRRK2-mediated phosphorylation of 4E-BP1; assay type: biochemical
Method: The GST-4E-BP1 expressing vector was generated using the Invitrogen Gateway LR Clonase System. Briefly, an entry clone containing the 4E-BP1 sequence was reacted with the destination vector, pDEST-15 in the presence of the LR clonase mixture. After the clonase reaction, the mixture was transformed into One Shot BL21 chemically competent E. coli. The transformed cells were grown on ampicillin containing LB agar plate for one day at 37° C. Colonies containing GST-4E-BP1 were isolated. For protein induction, 100 μM IPTG was added to 100 mL culture and incubated for 3 h at 30° C. After IPTG incubation, cells were collected by centrifugation at 3,000×g for 15 min. The pellet was lysed with sonication in the presence of lysis butter containing 0.5% TX-100, 50 mM Tris-HCl (pH 8.0), 100 mM NaCl, 0.5 mM EGTA, 5 mM MgCl2, 2 mM DTT, and complete protease inhibitors. The lysate was centrifugated at 15,000×g for 15 min and the supernatant was incubated with GSH-sepharose beads for 2 h at 4° C. After incubation, the beads were washed with PBS containing an additional 150 mM NaCl and 0.1% TX-100 three times. The protein was eluted with elution buffer containing Hepes (pH 8.0), 150 mM NaCl, 30% glycerol, and 30 mM glutathione. The eluted proteins were stored at −80° C.
The in vitro kinase assay was performed as previously described. West, A. B. et al. Parkinson's disease-associated mutations in leucine-rich repeat kinase 2 augment kinase activity. Proc Natl Acad Sci USA 102, 16842-16847 (2005). Recombinant LRRK2 and MBP or CST-4E-BP1 were combined before the kinase reaction. LRRK2 autophosphorylation is LRRK2 itself phosphorylation and MBP or GST-4E-BP1 phosphorylation is induced by LRRK2. After the kinase reaction, combined LRRK2 and MBP or GST-4E-BP1 were loaded on SDSPAGE and phosphorylated LRRK2 and MBP or GST-4E-BP1 could be detected separately an a single gel. Recombinant proteins and inhibitors were incubated at 30° C. in kinase assay buffer containing 20 mM Hepes (pH 7.4), 5 mM EGTA, and 20 mM β-glycerol phosphate. 0.5 μg MBP (Upstate) or 0.5 μg GST-4B-BP1, 50 μM ATP (Sigma), 20 mM MgCl2, and 1 μCi [γ-32P] ATP (PerkinElmer) was added after 5 min. The reaction was performed at 30° C. to reduce non-specific 32P incorporation for 15 min and terminated by the addition of 5×Laemmili sample buffer. The reactions were then heated at 70° C. for 10 min and resolved by 12% SDS-PAGE. Gels were stained by coomassie brilliant blue after fixation with 10% acetic acid and 40% methanol and then exposed to a Phosphoimager. Data were analyzed by ImageQuant 6.0 software.

[7] = test system: rat primary cortical neuronal cultures transfected with G2019S LRRK2; assay: LRRK2-induced neuronal toxicity in primary cortical neuronal cultures (neurite shortening, TUNEL); assay type: cell-based; details: 0.5 μM
Method: Representative photomicrographs of each experimental group. LRRK2 and eGFP constructs were combined in a molar ratio of 10:1, respectively, and transfected by using of Lipofectamine 2000 (Invitrogen) at DIV (day in vitro) 14 into rat primary cortical neuronal cultures. Compounds (0.5 μM) were administrated at the time of transfection and continued until toxicity assessments. On DIV 16, images were collected on a Zeiss Automatic stage with Axiovision 6.0. (a) Low magnified photomicrographs; (b and c) High magnified photomicrographs. Scale bar=50 μm (a) and 10 μm (b and c);
Primary cortical neuronal cultures were prepared from gestational day 15 fetal rats as previously described. Gonzalez-Zulueta, M., et al. Manganese superoxide dismutase protects nNOS neurons from NMDA and nitric oxide-mediated neurotoxicity. J Neurosci 18, 2040-2055 (1998). All procedures used in this study were approved by the Johns Hopkins Medical Institute Animal Care Committee. Cell viability assays and DNA fragmentation (TUNEL assay) were performed as previously described. Smith, W. W., et al. Kinase activity of mutant LRRK2 mediates neuronal toxicity. Nat Neurosci 9, 1231-1233 (2006); West, A. B., et al. Parkinson's disease-associated mutations in LRRK2 link enhanced GTP-binding and kinase activities to neuronal toxicity. Hum Mol Genet 16, 223-232 (2007). The cortex was dissected, incubated for 15 min in 0.027% trypsin, and then transferred to modified Eagle's medium (MEM)/10% horse serum/10% fetal bovine serum/2 mM glutamine followed by trituration. Dissociated cells were plated at a density of 3-4×10^5 cells per well in polyornithine-coated plates. After 4 days the cells were treated with 10 μg of 5-fluoro-2′-deoxyuridine to prevent proliferation of nonneuronal cells. Cells were maintained in MEM/5% horse serum/2 mM glutamine in 8% CO2 incubator. The medium was changed twice weekly. For assessment of LRRK2-mediated neuronal injury, LRRK2 and eGFP constructs were combined in a molar ratio of 10:1, respectively, and transfected into neurons with Lipofectamine 2000 (Invitrogen) at DIV (day in vitro) 14. On DIV 16, images were collected on a Zeiss Automatic stage with Axiovision 6.0. Viable neurons were defined as having at least one smooth extension (neurite) with twice the length of the cell body. The percentage of eGFP-positive injured neurons in each experimental group relative to those neurons transfected with eGFP was calculated.

[8] = from literature; cited from earlier work

T1 sequence (Q5S007 whole entry): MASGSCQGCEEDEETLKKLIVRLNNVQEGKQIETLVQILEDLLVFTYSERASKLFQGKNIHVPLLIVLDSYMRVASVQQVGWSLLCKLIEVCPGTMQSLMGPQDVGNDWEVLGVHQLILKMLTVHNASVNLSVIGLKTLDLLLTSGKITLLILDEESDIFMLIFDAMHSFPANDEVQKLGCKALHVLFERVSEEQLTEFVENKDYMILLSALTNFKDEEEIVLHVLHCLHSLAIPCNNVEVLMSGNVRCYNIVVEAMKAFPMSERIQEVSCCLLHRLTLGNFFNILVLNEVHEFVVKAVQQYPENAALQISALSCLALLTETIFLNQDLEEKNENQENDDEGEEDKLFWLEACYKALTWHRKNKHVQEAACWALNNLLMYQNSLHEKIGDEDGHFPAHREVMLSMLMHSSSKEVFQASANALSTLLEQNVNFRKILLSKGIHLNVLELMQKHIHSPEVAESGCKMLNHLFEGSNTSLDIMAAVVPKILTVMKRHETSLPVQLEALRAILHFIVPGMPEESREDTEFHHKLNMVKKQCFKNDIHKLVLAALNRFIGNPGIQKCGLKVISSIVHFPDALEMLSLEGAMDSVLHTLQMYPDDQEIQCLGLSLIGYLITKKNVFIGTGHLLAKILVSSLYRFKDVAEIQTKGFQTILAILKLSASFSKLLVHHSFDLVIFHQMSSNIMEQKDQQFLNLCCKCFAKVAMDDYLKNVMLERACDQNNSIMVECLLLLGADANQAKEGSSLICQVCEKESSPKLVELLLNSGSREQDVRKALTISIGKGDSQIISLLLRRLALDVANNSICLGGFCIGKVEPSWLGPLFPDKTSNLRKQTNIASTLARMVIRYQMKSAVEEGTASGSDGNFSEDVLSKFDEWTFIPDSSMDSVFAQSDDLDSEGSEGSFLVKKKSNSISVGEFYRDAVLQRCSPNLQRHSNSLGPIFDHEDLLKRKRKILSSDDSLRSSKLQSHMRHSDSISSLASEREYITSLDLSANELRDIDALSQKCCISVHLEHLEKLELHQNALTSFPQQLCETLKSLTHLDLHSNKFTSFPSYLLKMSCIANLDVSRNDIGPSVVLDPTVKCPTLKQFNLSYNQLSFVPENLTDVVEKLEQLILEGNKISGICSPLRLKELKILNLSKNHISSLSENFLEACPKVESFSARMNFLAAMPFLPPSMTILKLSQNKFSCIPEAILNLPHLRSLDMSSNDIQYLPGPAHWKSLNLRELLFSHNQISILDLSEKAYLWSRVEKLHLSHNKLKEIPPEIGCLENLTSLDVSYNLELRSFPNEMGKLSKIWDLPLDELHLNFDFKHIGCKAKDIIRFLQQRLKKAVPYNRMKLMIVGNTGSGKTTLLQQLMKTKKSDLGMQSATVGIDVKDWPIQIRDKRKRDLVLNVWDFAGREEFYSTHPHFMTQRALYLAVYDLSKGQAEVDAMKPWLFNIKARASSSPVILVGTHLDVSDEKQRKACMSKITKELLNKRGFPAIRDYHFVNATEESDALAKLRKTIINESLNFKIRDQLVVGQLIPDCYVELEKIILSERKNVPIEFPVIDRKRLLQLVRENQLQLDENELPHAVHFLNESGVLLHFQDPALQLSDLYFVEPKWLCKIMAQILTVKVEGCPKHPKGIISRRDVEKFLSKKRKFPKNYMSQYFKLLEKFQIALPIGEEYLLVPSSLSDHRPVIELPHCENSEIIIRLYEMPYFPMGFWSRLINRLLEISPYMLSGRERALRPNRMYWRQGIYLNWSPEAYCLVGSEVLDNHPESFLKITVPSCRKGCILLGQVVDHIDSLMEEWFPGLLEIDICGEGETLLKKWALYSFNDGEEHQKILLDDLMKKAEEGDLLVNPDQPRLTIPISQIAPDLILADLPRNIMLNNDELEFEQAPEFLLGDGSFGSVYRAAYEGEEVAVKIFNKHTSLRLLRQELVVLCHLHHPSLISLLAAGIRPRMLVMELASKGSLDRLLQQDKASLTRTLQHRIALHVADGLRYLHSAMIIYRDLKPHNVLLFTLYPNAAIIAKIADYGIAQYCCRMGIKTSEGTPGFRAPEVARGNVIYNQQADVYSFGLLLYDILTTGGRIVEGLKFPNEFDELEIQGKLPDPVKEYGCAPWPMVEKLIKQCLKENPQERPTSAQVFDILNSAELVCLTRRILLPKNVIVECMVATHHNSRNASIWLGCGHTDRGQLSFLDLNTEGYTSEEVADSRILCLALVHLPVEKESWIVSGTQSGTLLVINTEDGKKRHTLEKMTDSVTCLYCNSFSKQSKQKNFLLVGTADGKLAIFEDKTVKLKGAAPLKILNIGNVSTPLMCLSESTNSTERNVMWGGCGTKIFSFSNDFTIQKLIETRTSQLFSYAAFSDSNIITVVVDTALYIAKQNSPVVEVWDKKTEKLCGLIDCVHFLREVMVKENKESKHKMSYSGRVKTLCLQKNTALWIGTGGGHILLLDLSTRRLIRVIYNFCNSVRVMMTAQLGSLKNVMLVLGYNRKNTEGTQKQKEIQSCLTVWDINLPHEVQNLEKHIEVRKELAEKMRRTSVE
T3 sequence (Q38SD2 whole entry): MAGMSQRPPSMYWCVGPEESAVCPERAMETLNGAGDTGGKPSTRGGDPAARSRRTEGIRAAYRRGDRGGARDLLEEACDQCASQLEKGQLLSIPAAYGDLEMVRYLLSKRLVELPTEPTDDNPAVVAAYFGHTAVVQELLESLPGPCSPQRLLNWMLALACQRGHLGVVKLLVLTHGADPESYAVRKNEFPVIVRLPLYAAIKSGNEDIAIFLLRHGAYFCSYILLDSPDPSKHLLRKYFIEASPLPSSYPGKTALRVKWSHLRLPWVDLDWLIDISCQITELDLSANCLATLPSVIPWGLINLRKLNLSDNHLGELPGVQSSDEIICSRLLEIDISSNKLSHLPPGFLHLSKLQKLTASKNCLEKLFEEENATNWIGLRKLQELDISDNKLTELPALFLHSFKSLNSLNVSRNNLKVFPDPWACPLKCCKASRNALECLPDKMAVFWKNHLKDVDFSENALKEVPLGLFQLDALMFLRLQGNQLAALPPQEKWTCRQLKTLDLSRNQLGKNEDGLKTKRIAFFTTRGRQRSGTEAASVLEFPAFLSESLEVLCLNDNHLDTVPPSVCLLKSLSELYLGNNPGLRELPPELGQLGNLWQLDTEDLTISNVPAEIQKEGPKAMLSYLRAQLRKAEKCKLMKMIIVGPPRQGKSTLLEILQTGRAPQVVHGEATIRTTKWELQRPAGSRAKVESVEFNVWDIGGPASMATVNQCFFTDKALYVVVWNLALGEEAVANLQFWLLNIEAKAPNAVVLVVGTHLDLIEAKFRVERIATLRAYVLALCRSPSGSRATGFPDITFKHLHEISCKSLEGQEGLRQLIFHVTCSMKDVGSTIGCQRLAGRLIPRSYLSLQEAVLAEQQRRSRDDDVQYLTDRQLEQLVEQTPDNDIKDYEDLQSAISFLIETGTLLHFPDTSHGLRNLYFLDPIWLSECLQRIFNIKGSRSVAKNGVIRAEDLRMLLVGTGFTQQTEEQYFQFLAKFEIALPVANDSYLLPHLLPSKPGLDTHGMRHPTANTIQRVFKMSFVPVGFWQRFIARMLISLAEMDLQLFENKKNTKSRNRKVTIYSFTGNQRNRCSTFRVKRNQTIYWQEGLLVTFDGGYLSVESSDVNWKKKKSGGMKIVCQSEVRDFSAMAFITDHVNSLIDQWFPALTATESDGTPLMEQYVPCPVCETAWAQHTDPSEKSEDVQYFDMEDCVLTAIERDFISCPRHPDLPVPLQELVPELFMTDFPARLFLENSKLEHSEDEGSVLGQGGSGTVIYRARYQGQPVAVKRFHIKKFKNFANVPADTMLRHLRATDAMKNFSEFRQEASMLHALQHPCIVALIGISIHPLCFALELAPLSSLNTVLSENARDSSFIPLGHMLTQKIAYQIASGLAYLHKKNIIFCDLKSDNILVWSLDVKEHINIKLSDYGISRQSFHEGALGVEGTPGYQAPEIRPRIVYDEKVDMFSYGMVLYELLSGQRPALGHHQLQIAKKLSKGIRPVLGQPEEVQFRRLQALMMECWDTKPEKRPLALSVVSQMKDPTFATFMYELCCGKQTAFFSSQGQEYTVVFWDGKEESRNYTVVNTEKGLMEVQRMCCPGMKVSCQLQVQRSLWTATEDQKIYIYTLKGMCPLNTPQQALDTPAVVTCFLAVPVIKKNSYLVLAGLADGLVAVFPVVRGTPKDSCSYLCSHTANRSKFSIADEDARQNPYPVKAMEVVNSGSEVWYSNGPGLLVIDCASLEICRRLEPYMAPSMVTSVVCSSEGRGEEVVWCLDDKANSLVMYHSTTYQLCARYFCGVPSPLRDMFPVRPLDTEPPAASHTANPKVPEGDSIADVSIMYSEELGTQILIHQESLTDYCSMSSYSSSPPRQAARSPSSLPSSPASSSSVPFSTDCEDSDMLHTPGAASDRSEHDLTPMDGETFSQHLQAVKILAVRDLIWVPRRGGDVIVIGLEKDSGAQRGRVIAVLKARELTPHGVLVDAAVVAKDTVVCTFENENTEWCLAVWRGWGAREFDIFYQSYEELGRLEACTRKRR
T2 sequence (Q5S007 whole entry G2019S): as the sequence (Q5S007 whole entry) above, with G2019S counted along it
G2019S LRRK2, sequence (Q5S007 whole entry G2019S): as the sequence (Q5S007 whole entry) above, with G2019S counted along it

effect on WT LRRK2 autophosphorylation (LRRK2 WT [1]): no effect
effect on WT LRRK2 MBP phosphorylation (LRRK2 WT [2]): no effect
effect on G2019S LRRK2 autophosphorylation (LRRK2 G2019S [3]): no effect
effect on G2019S LRRK2 MBP phosphorylation (LRRK2 G2019S [4]): no effect
effect on LRRK1 autophosphorylation (LRRK1 WT [5]): no effect
effect on LRRK1 MBP phosphorylation (LRRK1 WT [6]): no effect
LRRK2-mediated phosphorylation of 4E-BP1 (G2019S LRRK2): did not inhibit
SMILES: O=C1Nc2ccccc2/C1=C1/Nc2ccccc2C1=O [Inhibitor 69, Indirubin]
G2019S LRRK2 toxicity [7]: failed to inhibit
crossing of the blood-brain barrier [8]: known to cross the blood-brain barrier
